Measured values: paper PMC11232401, “Characterization of antimalarial activity of artemisinin-based hybrid drugs” (Antimicrobial Agents and Chemotherapy, 2024)
Like-named read-outs stand apart in the source and are kept apart here.

Experiments:
Format in all cases: cell-based, Plasmodium falciparum
[1] = tested on: 3D7 strain of P. falciparum; test: Host cell-mediated drug degradation: antiplasmodial activity of uRBC supernatants; details: for IC50: Plasmodium falciparum, 3D7, 0.16 h, 500 nM drug, 3D7, SYBR Green I, median ± SEM (AQ mean, 95% CI), read-out: IC50 of supernatants harvested at 0.16 h; for Fold changes (24 h/0.16 h): 3D7, ratio of IC50 at 24 h to IC50 at 0.16 h
Method: Each well of 96-well plates was filled with 125 µL drug (1000 nM) and 125 µL uninfected red blood cells (uRBC), which were mixed to obtain a final drug concentration of 500 nM and 2.5% or 1.0% hematocrit. The plates were incubated at 37°C in the standard gas mixture. After each time point (10 min, 6 h, and 24 h), supernatants were carefully harvested and stored at −80°C until use. […] Next, supernatants were diluted in a complete medium in six different dilutions and were aliquoted in new plates. The antimalarial activity of these supernatants and freshly dissolved drugs was determined in an asynchronous parasite culture of P. falciparum (3D7, D10, and W2 strains) for 72 h using the same method described above, and parasite viability was assessed by the pLDH ([38]) and SYBR Green I ([41]) methods. Only the experiments where the IC50 values of the supernatants harvested at 10 min were the same as those of the respective fresh drugs were considered for determining equivalent drug concentration. […] Decay in drug concentration was estimated by using the normalized slope values calculated from linear regression fits using the slope values of a standard curve as reference. Three independent experiments were performed using two replicates.
Figure S5: Data associated to Figure 3 in the main text of the manuscript. Panel A: Representative response-concentration curves of the antiplasmodial activity of supernatant-derived uRBC (2.5% hematocrit) harvested at indicated times (0.16, 6, and 24 h). Drug activity on parasite viability was determined 72 h after parasite incubation (3D7 strain, asynchronous). Values were subtracted from control (without treatment), transformed, and normalized to calculate nonlinear fit. Parasite viability was determined by SYBR Green I. Values are mean and error bars are the standard deviation of a single experiment, each concentration in duplicate. […] Footnotes: ^[a] Parasite viability was determined by SYBR Green I. ^[b^] Parasite viability was determined by pLDH readout. Values are median ± SEM of three independent experiments, each concentration in duplicate. ^[c^] […] These values are expressed as mean and 95% confidence interval (CI) of one experiment, each concentration in duplicate. […] Unpaired two-tailed t-test at 95% CI: *p <0.05; **p <0.01.

[2] = tested on: D10 strain of P. falciparum; test: as above; details: uRBC 1.0% hematocrit; for IC50: Plasmodium falciparum, 0.16 h, D10, pLDH, median ± SEM, read-out: IC50 of supernatants harvested at 0.16 h; for Fold changes (24 h/0.16 h): D10
Method: (§1) Each well of 96-well plates was filled with 125 µL drug (1000 nM) and 125 µL uninfected red blood cells (uRBC), which were mixed to obtain a final drug concentration of 500 nM and 2.5% or 1.0% hematocrit. The plates were incubated at 37°C in the standard gas mixture. After each time point (10 min, 6 h, and 24 h), supernatants were carefully harvested and stored at −80°C until use. Untreated uRBC incubated at the same times were used as negative controls, and DHA and AQ were employed as standard drugs. Next, supernatants were diluted in a complete medium in six different dilutions and were aliquoted in new plates. The antimalarial activity of these supernatants and freshly dissolved drugs was determined in an asynchronous parasite culture of P. falciparum (3D7, D10, and W2 strains) for 72 h using the same method described above, and parasite viability was assessed by the pLDH ([38]) and SYBR Green I ([41]) methods. Only the experiments where the IC50 values of the supernatants harvested at 10 min were the same as those of the respective fresh drugs were considered for determining equivalent drug concentration. […] Decay in drug concentration was estimated by using the normalized slope values calculated from linear regression fits using the slope values of a standard curve as reference. Three independent experiments were performed using two replicates.
(§2) Figure S5: Data associated to Figure 3 in the main text of the manuscript. Panel A: Representative response-concentration curves of the antiplasmodial activity of supernatant-derived uRBC (2.5% hematocrit) harvested at indicated times (0.16, 6, and 24 h). Drug activity on parasite viability was determined 72 h after parasite incubation (3D7 strain, asynchronous). Values were subtracted from control (without treatment), transformed, and normalized to calculate nonlinear fit. Parasite viability was determined by SYBR Green I. Values are mean and error bars are the standard deviation of a single experiment, each concentration in duplicate. Panel B: A table summarizing the IC50 values. Footnotes: ^[a] Parasite viability was determined by SYBR Green I. ^[b^] Parasite viability was determined by pLDH readout. Values are median ± SEM of three independent experiments, each concentration in duplicate. ^[c^] […] These values are expressed as mean and 95% confidence interval (CI) of one experiment, each concentration in duplicate. AQ = amodiaquine; DHA = dihydroartemisinin; uRBC = uninfected red blood cells. Unpaired two-tailed t-test at 95% CI: *p <0.05; **p <0.01.

[3] = tested on: W2 strain (CQ-resistant) of P. falciparum; test: as above; details: uRBC 1.0% hematocrit; for IC50: Plasmodium falciparum, 0.16 h, W2, pLDH, median ± SEM, read-out: IC50 of supernatants harvested at 0.16 h; for Fold changes (24 h/0.16 h): W2
Method: as §1, §2

F32-ART parasites = test: In vitro recrudescence assay; details: 700 nM, 48 h exposure; for Recrudescence time in days (median; range), Recrudescence assay F32-ART: monitored up to 30 days
Method: (§3) Parasites were washed with RPMI-1640 medium before being placed in drug-free culture conditions with 10% human serum. Parasitemia was determined daily by Giemsa-staining of blood smears until the cultures reached their initial parasitemia, defined as the recrudescence day. […] Two independent experiments were performed ([10]).

F32-TEM parasites = test: In vitro recrudescence assay; details: 700 nM, 48 h exposure, monitored up to 30 days
Method: as §3

C[C@H]1[C@@H](O)O[C@@H]2O[C@@]3(C)CC[C@H]4[C@H](C)CC[C@@H]1[C@@]24OO3 [DHA, dihydroartemisinin, reference compound]
IC50 ([1]; uRBC 1.0% hematocrit): 4.5 ± 1.1 nM
IC50 ([1]; uRBC 2.5% hematocrit): 6.7 ± 2.5 nM
loss in supernatant activity, supernatant harvested at 6 h ([1]; high hematocrit (2.5%)): fourfold
loss in antiplasmodial activity of supernatants harvested at 6 h ([1]; low hematocrit (1%)): 2 fold
IC50 [2]: 3.5 ± 0.43 nM
Fold changes (24 h/0.16 h) [2]: 19.9 ± 0.09
IC50 [3]: 1.9 ± 0.25 nM
Fold changes (24 h/0.16 h) [3]: 15.82 ± 2.21
delay in recrudescence between F32-ART and F32-TEM (F32-ART parasites): 8 days
Recrudescence time in days (median; range), Recrudescence assay F32-ART (F32-ART parasites): 7.5 (7–8) days
Recrudescence time in days (median; range), Recrudescence assay F32-TEM (F32-TEM parasites): 16.5 (15–18) days

CC1CCC2C(C)C(OC(=O)CCC(=O)OCCNc3ccnc4cc(Cl)ccc34)OC3OC4(C)CCC1C32OO4 (stereo not shown) [Hybrid 2]
IC50 ([1]; uRBC 1.0% hematocrit): 3.4 ± 0.33 nM
IC50 ([1]; uRBC 2.5% hematocrit): 2.8 ± 0.51 nM
Fold changes (24 h/0.16 h) ([1]; uRBC 1.0% hematocrit): 1.1 ± 0.31
Fold changes (24 h/0.16 h) ([1]; uRBC 2.5% hematocrit): 10
Fold changes (24 h/0.16 h) ([1]; uRBC 2.5% hematocrit, listed as 163A (2)): 10.7 ± 4.1
IC50 [2]: 3.7 ± 1.32 nM
Fold changes (24 h/0.16 h) [2]: 1.25 ± 0.46
IC50 [3]: 4.3 ± 1.74 nM
Fold changes (24 h/0.16 h) [3]: 1.38 ± 0.15
Recrudescence time in days (median; range), Recrudescence assay F32-ART (F32-ART parasites): 7.5 (7–8) days
Recrudescence time in days (median; range), Recrudescence assay F32-TEM (F32-TEM parasites): 16 (14–18) days

COCCOCCOCCOCCn1c(-c2ccc(-n3cc(-c4ccc(OC5OC6OC7(C)CCC8C(C)CCC(C5C)C68OO7)cc4)nn3)cc2)nc2ccccc21 (stereo not shown) [Hybrid 1]
IC50 ([1]; uRBC 2.5% hematocrit): 1.3 ± 0.44 nM
Fold changes (24 h/0.16 h) ([1]; uRBC 1.0% hematocrit): 1.0 ± 0.23
Fold changes (24 h/0.16 h) ([1]; uRBC 2.5% hematocrit): 3
Fold changes (24 h/0.16 h) ([1]; uRBC 2.5% hematocrit, listed as LH70 (1)): 3.6 ± 0.8
IC50 [2]: 1.8 ± 0.08 nM
Fold changes (24 h/0.16 h) [2]: 0.90 ± 0.08
Fold changes (24 h/0.16 h) [3]: 0.98 ± 0.22
Recrudescence time in days (median; range), Recrudescence assay F32-ART (F32-ART parasites): 11.5 (10– 13) days
Recrudescence time in days (median; range), Recrudescence assay F32-TEM (F32-TEM parasites): > 20 (21–>30) days
